Structures are written as SMILES. pIC50: −log10 of the molar value.

In one experiment the target is 58 kinases. Description: Kinase panel (Z′-Lyte, Adapta/Lanthascreen), 58 kinases. Type of experiment: biochemical. The settings on record: number of the 58 kinases inhibited more than 50% at 500 nM. Here is the method: To assess the kinase selectivity of compounds, Z′-Lyte biochemical assay, and Adapta/Lanthascreen binding assays from Life technologies were used according to manufacturer's instructions. Pourcentages of inhibition at 500 nM of test compounds were performed towards 58 kinases: ABL1, ACVR1B (ALK4), AKT2 (PKB beta), AMPK (A1/132/G3), AURKA (Aurora A), AXL, BRAF, BTK, CAMK2B (CaMKII beta), CDK2/cyclin A, CHEK1 (CHK1), CLK1, CSNK1A1 (CK1 alpha 1), CSNK2A1 (CK2 alpha 1), DAPK3 (ZIPK), DYRK1A, EGFR (ErbB1), EPHB3, ERBB2 (HER2), FGFR2, FLT3, FRAP1 (mTOR), GSK3B (GSK3 beta), IGF1R, IKBKB (IKK beta), INSR, IRAK4, JAK2, KDR (VEGFR2), KIT, LCK, MAP2K1 (MEK1), MAPK10 (JNK3), MAPK11 (p38 beta), MAPKAPK2, MARK2, MET (cMet), NEK2, NTRK1 (TRKA), PAK2 (PAK65), PDGFRB (PDGFR beta), PDK1 Direct, PHKG2, PIK3CA/PIK3R1 (p110 alpha/p85 alpha), PIM1, PLK1, PRKACA (PKA), PRKCA (PKC alpha), PTK2 (FAK), RET, ROCK1, RPS6KA1 (RSK1), RPS6KB1 (p70S6K), SRC, STK3 (MST2), SYK, TEK (Tie2), TYRO3 (RSE).
Take `NC[C@H](c1cccc(Cl)c1)n1ccc(-c2c[nH]c3ncc(N4CCOCC4)cc23)cc1=O` [Comparative compound A (S), (S)-1-(2-amino-1-(3-chlorophenyl)ethyl)-4-(5-morpholino-1H-pyrrolo[2,3-b]pyridin-3-yl)pyridin-2(1H)-one, reference compound]: the “Kinase panel @500 nM hits > 50%” value is given as 26/58.

As for `CNC[C@H](c1ccc(Cl)c(Cl)c1)n1ccc(-c2c[nH]c3ncc(N4CCOCC4)cc23)cc1=O` [Comparative compound B (S), (S)-1-(1-(3,4-dichlorophenyl)-2-(methylamino)ethyl)-4-(5-morpholino-1H-pyrrolo[2,3-b]pyridin-3-yl)pyridin-2(1H)-one, reference compound], the “Kinase panel @500 nM hits > 50%” value is on record as 20/58.

The experiment is the same for the next values; noted with them: number of the 58 kinases inhibited more than 80% at 500 nM.
Consider `NC[C@H](c1cccc(Cl)c1)n1ccc(-c2c[nH]c3ncc(N4CCOCC4)cc23)cc1=O` [Comparative compound A (S), (S)-1-(2-amino-1-(3-chlorophenyl)ethyl)-4-(5-morpholino-1H-pyrrolo[2,3-b]pyridin-3-yl)pyridin-2(1H)-one, reference compound], for which the “Kinase panel @500 nM hits > 80%” value was 15/58.

With `CNC[C@H](c1ccc(Cl)c(Cl)c1)n1ccc(-c2c[nH]c3ncc(N4CCOCC4)cc23)cc1=O` [Comparative compound B (S), (S)-1-(1-(3,4-dichlorophenyl)-2-(methylamino)ethyl)-4-(5-morpholino-1H-pyrrolo[2,3-b]pyridin-3-yl)pyridin-2(1H)-one, reference compound], the “Kinase panel @500 nM hits > 80%” value was 10/58.

In the next experiment the target is T1, ERK2 (MAPK1) (Homo sapiens, UniProt P28482).
T1 construct: purchased Life technologies
T1 sequence (P28482 whole entry): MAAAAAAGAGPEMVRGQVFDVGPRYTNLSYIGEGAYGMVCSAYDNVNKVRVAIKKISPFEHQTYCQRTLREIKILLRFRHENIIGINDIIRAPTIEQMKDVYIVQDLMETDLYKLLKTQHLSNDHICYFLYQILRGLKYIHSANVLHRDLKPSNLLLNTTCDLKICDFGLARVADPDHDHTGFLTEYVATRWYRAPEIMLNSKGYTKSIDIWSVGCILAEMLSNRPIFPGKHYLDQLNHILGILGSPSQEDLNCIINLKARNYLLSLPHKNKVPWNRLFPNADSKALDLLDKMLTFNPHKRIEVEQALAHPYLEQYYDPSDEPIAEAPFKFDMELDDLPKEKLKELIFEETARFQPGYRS
Kind of experiment: ERK2 (MAPK1) enzymatic assay (Z′-Lyte).
Settings: not given
It is filed as biochemical. Here is the method: To assess the capacity of compounds to inhibit ERK2 enzymatic activity, Z′-Lyte biochemical assay from Life technologies was used according to manufacturer's instructions. Briefly, black 384-well plates containing 100 nl of 100× compound solution in 100% DMSO, 2.4 μl kinase buffer, 5 μl 2×MAPK1 (ERK2)/Ser/Thr 03 mixture and 2.5 μl 4×ATP solution were used. Plates were shaken for 30 seconds and incubated for 60 minutes at room temperature. Then, 5 μl of a 1:1024 dilution of Development Reagent A was added. Plates were shaken for 30 seconds and incubated for 60 minutes at room temperature. A plate reader was used to read fluorescence. […] Kinase buffer consisted of 50 mM HEPES pH 7.5, 0.01% BRIJ-35, 10 mM MgCl2, 1 mM EGTA.
A word on the pIC50: it is −log10 of the IC50, conventionally taken in molar units. Higher therefore signals a low IC50. As for `CN(C)CC(c1cc(F)cc(Cl)c1)n1ccc(-c2c[nH]c3ncc(N4CCOCC4)cc23)cc1=O` (racemic) [Compound no9 (racemate), 1-(1-(3-Chloro-5-fluorophenyl)-2-(dimethylamino)ethyl)-4-(5-morpholino-1H-pyrrolo[2,3-b]pyridin-3-yl)pyridin-2(1H)-one], the pIC50 was 8.11.

On to `CN(C)CC(c1cc(F)cc(I)c1)n1ccc(-c2c[nH]c3ncc(N4CCOCC4)cc23)cc1=O` (racemic) [Compound no10 (racemate), 1-(2-(dimethylamino)-1-(3-fluoro-5-iodophenyl)ethyl)-4-(5-morpholino-1H-pyrrolo[2,3-b]pyridin-3-yl)pyridin-2(1H)-one], for which the pIC50 is 8.29.

The molecule `CN(C)C[C@H](c1cccc(I)c1)n1ccc(-c2c[nH]c3ncc(N4CCOCC4)cc23)cc1=O` [Compound no6 (S), (S)-1-(2-(dimethylamino)-1-(3-iodophenyl)ethyl)-4-(5-morpholino-1H-pyrrolo[2,3-b]pyridin-3-yl)pyridin-2(1H)-one] showed a pIC50 of 8.62.

`CCN(C)C[C@H](c1cccc(Cl)c1)n1ccc(-c2c[nH]c3ncc(N4CCOCC4)cc23)cc1=O` [Compound no15 (S), (S)-1-(1-(3-chlorophenyl)-2-(ethyl(methyl)amino)ethyl)-4-(5-morpholino-1H-pyrrolo[2,3-b]pyridin-3-yl)pyridin-2(1H)-one] gave a pIC50 of 8.46.

Another experiment has as its system A375 cells (malignant melanoma). Kind of experiment: Cell line proliferation assay (MTT, A375). Type of experiment: cell-based. The settings on record: Homo sapiens, A-375, 72 hours. The procedure:
A cell line assay was used to determine the capacity of compounds to inhibit cell proliferation. A375 cells (malignant melanoma) were grown to near 80% confluence and seeded at 3000 cells per 100 μl per well in DMEM with 10% FBS in 96-well flat bottom plates. Cells were incubated for 24 hours at 37° C. under 5% CO2. 100 μl compound solutions were added to cells and incubated for 72 hours at 37° C. Total volume of media was 200 μl per well. Compounds were screened in 0.15% DMSO (final) using 10 titration points in duplicate. Negative control wells consisted of vehicle only (0.15% DMSO in 10% FBS DMEM). After 72 hours of compound treatment, SDS 1% (final) was added to positive control wells for 15 minutes at 37° C. Then, medium was discarded and replaced by 100 μl per well of a MTT solution (3-[4.5-dimethylthiazol-2-yl]-2.5-diphenyltetrazolium bromide) (Sigma, Cat #M5655) at 0.5 mg/ml in 10% FBS DMEM. Cells were incubated for 4 hours at 37° C. MTT reaction was stopped and homogenized by the addition of 100 μl per well of SDS 10% 0.01M HCl. After 16 hours at 37° C., absorbance was measured at 570 nm in a Bio-Tek plate reader (PowerWave HT). […] Analysis was performed using GraphPad Prism software.
`CN(C)C[C@H](c1cccc(I)c1)n1ccc(-c2c[nH]c3ncc(N4CCOCC4)cc23)cc1=O` [Compound no6 (S), (S)-1-(2-(dimethylamino)-1-(3-iodophenyl)ethyl)-4-(5-morpholino-1H-pyrrolo[2,3-b]pyridin-3-yl)pyridin-2(1H)-one] gave a pIC50 of 7.38.

The molecule `CN(C)C[C@H](c1cc(F)cc(Cl)c1)n1ccc(-c2c[nH]c3ncc(N4CCOCC4)cc23)cc1=O` [Compound no9 (S), (S)-1-(1-(3-chloro-5-fluorophenyl)-2-(dimethylamino)ethyl)-4-(5-morpholino-1H-pyrrolo[2,3-b]pyridin-3-yl)pyridin-2(1H)-one] gave a negative logarithm of the IC50 (pIC50) of 6.73.

Turning to `CN(C)C[C@H](c1cc(F)cc(I)c1)n1ccc(-c2c[nH]c3ncc(N4CCOCC4)cc23)cc1=O` [Compound no10 (S), (S)-1-(2-(dimethylamino)-1-(3-fluoro-5-iodophenyl)ethyl)-4-(5-morpholino-1H-pyrrolo[2,3-b]pyridin-3-yl)pyridin-2(1H)-one], the pIC50 is 6.94.

Regarding `CN(CC(F)F)C[C@H](c1cccc(Cl)c1)n1ccc(-c2c[nH]c3ncc(N4CCOCC4)cc23)cc1=O` [Compound no11 (S), (S)-1-(1-(3-chlorophenyl)-2-((2,2-difluoroethyl)(methyl)amino)ethyl)-4-(5-morpholino-1H-pyrrolo[2,3-b]pyridin-3-yl)pyridin-2(1H)-one], the pIC50 was 6.64.

Regarding `CN(CC#N)C[C@H](c1cccc(Cl)c1)n1ccc(-c2c[nH]c3ncc(N4CCOCC4)cc23)cc1=O` [Compound no12 (S), (S)-2-((2-(3-chlorophenyl)-2-(4-(5-morpholino-1H-pyrrolo[2,3-b]pyridin-3-yl)-2-oxopyridin-1(2H)-yl)ethyl)(methyl)amino)acetonitrile], the pIC50 is 8.15.

In turn, `COCCN(C)C[C@H](c1cccc(Cl)c1)n1ccc(-c2c[nH]c3ncc(N4CCOCC4)cc23)cc1=O` [Compound no13 (S), (S)-1-(1-(3-chlorophenyl)-2-((2-methoxyethyl)(methyl)amino)ethyl)-4-(5-morpholino-1H-pyrrolo[2,3-b]pyridin-3-yl)pyridin-2(1H)-one] had a pIC50 of 6.58.

On to `CN(C[C@H](c1cccc(Cl)c1)n1ccc(-c2c[nH]c3ncc(N4CCOCC4)cc23)cc1=O)C1CC1` [Compound no14 (S), (S)-1-(1-(3-chlorophenyl)-2-(cyclopropyl(methyl)amino)ethyl)-4-(5-morpholino-1H-pyrrolo[2,3-b]pyridin-3-yl)pyridin-2(1H)-one], for which the pIC50 was 6.38.

In turn, `CCN(C)C[C@H](c1cccc(Cl)c1)n1ccc(-c2c[nH]c3ncc(N4CCOCC4)cc23)cc1=O` [Compound no15 (S), (S)-1-(1-(3-chlorophenyl)-2-(ethyl(methyl)amino)ethyl)-4-(5-morpholino-1H-pyrrolo[2,3-b]pyridin-3-yl)pyridin-2(1H)-one] showed a pIC50 of 7.29.

Molecule `CN(CC1CC1)C[C@H](c1cccc(Cl)c1)n1ccc(-c2c[nH]c3ncc(N4CCOCC4)cc23)cc1=O` [Compound no16 (S), (S)-1-(1-(3-chlorophenyl)-2-((cyclopropylmethyl)(methyl)amino)ethyl)-4-(5-morpholino-1H-pyrrolo[2,3-b]pyridin-3-yl)pyridin-2(1H)-one] showed a pIC50 of 6.79.

Turning to `CN(C)C[C@H](c1cc(F)cc(F)c1)n1ccc(-c2c[nH]c3ncc(N4CCOCC4)cc23)cc1=O` [Compound no18 (S), (S)-1-(1-(3,5-difluorophenyl)-2-(dimethylamino)ethyl)-4-(5-morpholino-1H-pyrrolo[2,3-b]pyridin-3-yl)pyridin-2(1H)-one], the pIC50 was 6.43.

`CN(C)C[C@H](c1cccc(Cl)c1)n1cc(F)c(-c2c[nH]c3ncc(N4CCOCC4)cc23)cc1=O` [Compound no19 (S), (S)-1-(1-(3-chlorophenyl)-2-(dimethylamino)ethyl)-5-fluoro-4-(5-morpholino-1H-pyrrolo[2,3-b]pyridin-3-yl)pyridin-2(1H)-one] showed a pIC50 of 6.52.

As to `Cc1cc(-c2c[nH]c3ncc(N4CCOCC4)cc23)cc(=O)n1[C@H](CN(C)C)c1cccc(Cl)c1` [Compound no20 (S), (S)-1-(1-(3-chlorophenyl)-2-(dimethylamino)ethyl)-6-methyl-4-(5-morpholino-1H-pyrrolo[2,3-b]pyridin-3-yl)pyridin-2(1H)-one], the pIC50 is 6.08.

For `CN(C)C[C@H](c1cccc(Cl)c1)n1ccc(-c2c[nH]c3ncc(N4CCOC(C(F)(F)F)C4)cc23)cc1=O` (stereo partly drawn) [Compound no21 (S), 1-((S)-1-(3-chlorophenyl)-2-(dimethylamino)ethyl)-4-(5-(2-(trifluoromethyl)morpholino)-1H-pyrrolo[2,3-b]pyridin-3-yl)pyridin-2(1H)-one], the pIC50 is 6.70.

Molecule `O=c1cc(-c2c[nH]c3ncc(N4CCOCC4)cc23)ccn1[C@H](CN1CC1)c1cccc(Cl)c1` [Compound no24 (S), (S)-1-(2-(aziridin-1-yl)-1-(3-chlorophenyl)ethyl)-4-(5-morpholino-1H-pyrrolo[2,3-b]pyridin-3-yl)pyridin-2(1H)-one] gave a pIC50 of 7.02.

`CN(C)C[C@H](c1cccc(C#N)c1)n1ccc(-c2c[nH]c3ncc(N4CCOCC4)cc23)cc1=O` [Compound no25 (S), (S)-3-(2-(dimethylamino)-1-(4-(5-morpholino-1H-pyrrolo[2,3-b]pyridin-3-yl)-2-oxopyridin-1(2H)-yl)ethyl)benzonitrile] had a pIC50 of 6.81.

As to `CN(C)C[C@H](c1cccc(C(F)(F)F)c1)n1ccc(-c2c[nH]c3ncc(N4CCOCC4)cc23)cc1=O` [Compound no26 (S), (S)-1-(2-(dimethylamino)-1-(3-(trifluoromethyl)phenyl)ethyl)-4-(5-morpholino-1H-pyrrolo[2,3-b]pyridin-3-yl)pyridin-2(1H)-one], the pIC50 was 7.82.

The values are drawn from patent US11827637B2, “Azaindole derivatives and their use as ERK kinase inhibitors” (AGV Discovery, priority 2022, dated 2023).
